Key:
[1] = system: patients who have a history of GERD, unresponsive to conventional proton pump inhibitors or antacids; experiment: GERD patients unresponsive to proton pump inhibitors or antacids: ketotifen vs omeprazole (Example 5); assay type: in vivo, human; conditions: ketotifen 0.5 mg, 1 mg, 2 mg twice daily or omeprazole 1×20 mg/d
Experimental: To evaluate the effectiveness of ketotifen in patients who have a history of GERD, but are unresponsive to conventional proton pump inhibitors or antacids, two groups of patients are tested as similar to Example 4. One group is administered ketotifen at 0.5 mg, 1 mg, 2 mg, twice daily. The second group is treated with omeprazole, 1×20 mg/d. Sera IgE are evaluated before and after administration of ketotifen or omeprazole and gastrointestinal symptoms are recorded based on severity and frequency of symptoms.

[2] = system: OVA sensitized female BALB/c mice; experiment: Sensitization to new allergen in a model of pre-existing food allergy (Example 6); assay type: in vivo
Experimental: A study is conducted to determine whether atopic animals are more easily sensitized to a newly introduced allergen (e.g., hazel nut). Four groups of female BALB/c mice (7-8 weeks old) are sensitized by intraperitoneal (IP) injections 2 weeks apart with ovalbumin (OVA; 50 μg) in 1.3% aluminum hydroxide (200 μl) followed 2 weeks later by 7 seven intragastric challenges (every other day) with saline or 5, 10, or 50 mg OVA, a selected dose of hazel nut, or combination of OVA and hazelnut. Endpoints include observance of diarrhea after intragastric challenge, Serum total and antigen specific IgE and IgG 1, gut to body weight ratio, intestinal permeability, and histological evaluation are performed. […] A second experiment assesses the ability of ketotifen to inhibit the induction of allergy to a newly introduced food allergen in animals with a pre-existing gastrointestinal allergy. […] A group of BALB/c mice similarly sensitized to OVA, but continuing to receive intragastric hazel nut in the absence of intragastric OVA fails to develop an observable gastrointestinal allergy phenotype.

[3] = system: a patient with eosinophilic esophagitis; conditions: elimination of diet including eggs, treatment with ketotifen and montelukast; cited from earlier work
eosinophils = conditions: cited from earlier work
[4] = system: patients undergoing desensitization to oral allergen (hazelnut); experiment: Desensitization to oral allergen with hazelnut extract plus ketotifen (Example 3); assay type: in vivo, human; conditions: ketotifen plus hazelnut extract immunotherapy vs immunotherapy alone
Excerpt: To evaluate the efficacy of ketotifen in desensitization process against oral allergen such as hazelnut, a similar study as described in Example […] may be carried out except with the use of hazelnut extract rather than ragweed extract.

[5] = system: patients undergoing desensitization to airborne allergen (ragweed); experiment: One-day rush immunotherapy with short ragweed extract after ketotifen or placebo pretreatment (Example 2); assay type: in vivo, human; conditions: ketotifen 1 mg b.i.d. plus ragweed immunotherapy vs immunotherapy alone
Experimental: To evaluate the effectiveness of mast cell stabilizer, e.g., ketotifen, in desensitization or immunotherapy, particularly RUSH immunotherapy, a randomized, double-blind, placebo-controlled study is performed. Patients are randomly assigned to 4 treatment groups (1:1:1:1). Pretreatment with either ketotifen, 1 mg, b.i.d., or placebo, is carried out for nine weeks to protect, prevent, inhibit or ameliorate allergic reaction, particularly to prevent, normalize or ameliorate gastrointestinal symptoms. One-day rush immunotherapy (week 0) is completed at least 3 weeks before the start of the ragweed season. On the day of rush immunotherapy, the patients receive 6 injections of either placebo or aqueous short ragweed extract. Ragweed dosing starts with a diluted extract containing 0.012 μg of Amb a 1 (a major allergen in ragweed) over a 3-hour period, reaching a maximum of 1.2 μg of Amb a 1. […]
The efficacy end point is determined by comparing the average daily allergy severity scores (measured on a scale of 0-3) between patients receiving ketotifen plus immunotherapy versus those who receive just immunotherapy alone. The score is calculated from the average of individual scores for symptoms of gastrointestinal disorders, e.g., abdominal pain, nausea, diarrhea, and/or heartburn.

[6] = system: adult patients who have a history of GERD; experiment: GERD patients on omeprazole, ketotifen or both: GI symptoms and allergen-specific serum IgE (Example 4); assay type: in vivo, human
Experimental: The following study may be carried out to analyze the effectiveness of mast cell stabilizer in treating gastrointestinal disorders and/or as a prophylaxis against the development of allergy in patients at risk of developing sensitivity to such allergen, e.g., sensitivity to hazelnut, when exposed to it.
Sera of nine adult patients who have a history of GERD are collected. None of the patients report adverse reactions to inhalant or food allergens; however, IgE immunoblots are performed to screen their allergic state. Three patients from Group A are administered a proton pump inhibitor, e.g, omeprazole (Group A-1). Three patients from Group A are administered an oral dose of 0.5, 1, or 2 mg of ketotifen orally twice daily (Group A-2). […]
Serum IgE and Skin Tests in Patients: Sera are tested for allergen-specific IgE against hazelnut and inhalative allergens from tree pollen (eg, birch, hazel, and alder), grass pollen, weed pollen, molds, house dust mites, insect venoms, and animal dander. […] Additionally, total IgE is determined before and at the 3-mo time point. […]
Gastrointestinal Symptoms: Symptoms of gastrointestinal side effects such as GERD, nausea, abdominal pain, vomiting, gastritis and/or dyspepsia are recorded based on the severity and frequency of the symptoms. […]

[7] = system: patients with a history of hazelnut allergy; experiment: Oral food challenge with hazelnut flour under ketotifen or placebo (Example 1); assay type: in vivo, human
Experimental: Twenty-four patients with adverse food reaction are included in this study. As controls, twelve patients matched for age and gender and a history of GERD (Group A) and another twelve patients matched for age and gender and no history of any gastrointestinal disorder (Group B) are included. The history of use of antacids and satisfaction are recorded for both groups.
To analyze hypersensitivity to hazelnut, a double-blind, randomized, dose-ranging study is carried out with patients with a history of hazelnut allergy manifested by urticaria, angioedema, respiratory tract symptoms or hypotension generally using the methods described in Israel et al., Am. J. Respir. Crit. Care Med., (2000) 164:75-80. Eligible patients include those with serum total IgE level of 30-1000 IU/mL and/or a positive skin-prick test to hazelnut. […]
Before enrollment, threshold level for reactivity to hazelnut allergen is confirmed by a screening double-blind, placebo-controlled oral food challenge. […] Vital signs are checked, chest auscultation is performed, and peak expiratory flow rates are monitored every 30 minutes during the food challenge and for at least 2 hours after the last dose or the abatement of any symptoms or signs. […]
Peak expiratory flow rates are monitored every 30 minutes during food challenge for at least 2 hours after the last does or abatement of any symptoms or signs. […]

[8] = system: patients who have a diagnosis of eosinophilic esophagitis and food allergy; experiment: Eosinophilic esophagitis: ketotifen oral tablet vs topical gel (Example 7); assay type: in vivo, human
Experimental: To evaluate the effectiveness of ketotifen in patients who have a diagnosis of eosinophilic esophagitis and food allergy, two groups of patients will be tested. One group is orally administered ketotifen at 0.5 mg, 1 mg, or 2 mg, twice daily as a tablet.

PAF production = conditions: cited from earlier work
[9] = system: sensitization to previously tolerated ovalbumin; conditions: co-administered with ovalbumin; via elevation of the gastric pH; cited from earlier work

Molecule	GERD symptoms [1]	allergen specific IgE in blood sera [1]	development of new sensitivity to hazel nut ([2]; OVA sensitized mice receiving intragastric hazelnut with ketotifen or OVA plus hazelnut with ketotifen)	gastrointestinal allergy phenotype upon OVA intragastric challenge ([2]; female BALB/c mice sensitized to OVA)	clinical outcome [3]	eosinophil chemotaxis (eosinophils)	adverse events of gastrointestinal disorders [4]	allergy severity scores [4]	adverse events of gastrointestinal disorders [5]	allergy severity scores ([5]; scale of 0-3)	hazelnut-specific (and other allergen specific) IgE in blood sera ([6]; after onset of treatment, Groups A-1, A-2, A-3)	GERD symptoms ([6]; omeprazole 1×20 mg/d (A-1), ketotifen 0.5, 1 or 2 mg orally twice daily (A-2), both (A-3))	reflux symptom reporting during the study ([7]; GERD patients, Group A1 (ketotifen) vs Group A2 (placebo))	tolerance (severity of reaction) to hazelnut upon oral ingestion ([7]; ketotifen 0.5, 1 or 2 mg orally twice daily, Group A-1 and B-1 compared to placebo groups A-2 and B-2, challenge at two, four and six weeks)	patient-reported symptoms ([8]; ketotifen 0.5 mg, 1 mg or 2 mg twice daily as oral tablet)	overall effectiveness compared between formulations ([8]; oral tablet vs topical gel vs topical corticosteroids)	blood eosinophilia ([8]; oral tablet, blood analysis)	eosinophils, mast cells and degranulation in esophageal biopsies ([8]; oral tablet, compared to pre-treatment biopsies)	PAF production (PAF production)	sensitization to previously tolerated ovalbumin [9]
CN1CCC(=C2c3ccccc3CC(=O)c3sccc32)CC1 [ketotifen]	improved GERD symptoms	few new allergen specific IgE	fail to develop new sensitivity to hazel nut	significantly suppresses the gastrointestinal allergy phenotype	clinical relief	inhibiting chemotaxis	fewer adverse events of gastrointestinal disorders	significantly improved allergy severity scores	fewer adverse events of gastrointestinal disorders	significantly improved allergy severity scores	improved GERD symptoms and hazelnut-specific IgE	improved GERD symptoms	significantly lower	significant increased tolerance	partial improvement of symptoms	inferior to those observed with the topical gel formulation	decreased eosinophilia	fewer numbers of eosinophils and mast cells and less degranulation	suppresses PAF production	
sucralfate																				caused sensitization to previously tolerated ovalbumin

— US9649303B2, “Methods and treatment for allergies and inflammation associated with gastrointestinal diseases” (MASTCELL PHARMACEUTICALS, INC., priority 2008, dated 2017)
